According to patent US20260234165A1, “MACROCYCLIC COMPOUNDS, PREPARATION METHOD THEREFOR, AND USE THEREOF” (GENFLEET THERAPEUTICS (SHANGHAI) INC., priority 2004, published 2026):

Key:
[1] = test system: p-ERK in NCI-H441 cells (KRAS G12V mutation); test: Cell p-ERK assay (HTRF) in NCI-H441 cells; format: cell-based, human; conditions: Homo sapiens, NCI-H441, 3 h, NCI-H441 cells, 3 h compound incubation, HTRF p-ERK T202/Y204; read-out: H441 p-ERK IC50
In short: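 IC50 values derive from four-parameter fitting of p-ERK (T202/Y204) HTRF inhibition, normalized to DMSO and blank controls. The lysates came from cells exposed for 3 h to serial 3.16-fold compound dilutions at 0.1% DMSO, after overnight plating at 10000 AsPC-1 or 20000 NCI-H441 cells per well.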

[2] = Assay for stability in liver microsomes; format: in vitro ADME; conditions: human liver microsomes; for half-life at 1 µM: NADPH, 37° C., 0/30/60 min; for CLint scaled at 1 µM: liver intrinsic clearance rate
Procedure: This experiment was intended to investigate the metabolic stability of the test compounds in human liver microsomes. The materials used in the experiment included 10 mM solutions of the test compounds and the control sample, human liver microsomes, and reduced nicotinamide adenine dinucleotide phosphate (NADPH) powder. In the experiment, a 100 mM potassium phosphate buffer was used as the buffer system.
The liver microsome working solution was prepared by diluting the liver microsome stock solution to 0.75 mg/mL using the 100 mM potassium phosphate buffer. Then, 5 μL of the 10 mM stock solution of the test compound was taken, and 195 μL of methanol was added. The mixture was well mixed to prepare a working solution A with a concentration of 0.25 mM.
Subsequently, the working solution A was diluted to 1.5 μM using the liver microsome working solution to prepare a compound-liver microsome mixed solution. Additionally, NADPH powder was dissolved in a 100) mM potassium phosphate buffer to prepare a 6 mM NADPH solution. The compound-liver microsome mixed solution was dispensed into a 96-well plate at 30 μL/well, with labeled time points of 0 min, 30 min, and 60 min. For 0-min samples, 180 μL of acetonitrile containing 100 ng/mL tolbutamide and 15 μL of the NADPH solution were added directly. The 96-well plate and the NADPH solution were then preheated under a 37° C. water bath for 5 min. After the preheating, 15 μL of the NADPH solution was added to each of the 30-min and 60-min sample wells. The plate was gently shaken for mixing and then incubated under the 37° C. water bath for the corresponding time. After the incubation was completed. 180 μL of acetonitrile containing 100 ng/mL tolbutamide was added to each sample well. The plate was sealed with a sealing film, shaken for 10 min (800 rpm/min), and then centrifuged for 15 min (4000 rpm). After the centrifugation, 50 μL of the supernatant was taken and added to a 96-well plate containing 150 μL of deionized water, and then the plate was sealed and shaken for 10 min (800 rpm) for uniform mixing. Subsequently sample analysis was performed using liquid chromatography-tandem mass spectrometry (LC-MS/MS).
The elimination rate constant and clearance rate of the test compound in liver microsomes were calculated using the following formulas: Remaining rate (%)=(peak area ratio of the compound to internal standard at any time point/peak area ratio of the compound to internal standard at 0 min)×100%,^4. T1/2=0.693/ke, where ke is the elimination rate constant and T1/2 is the half-life. Liver microsome intrinsic clearance rate (CLint(mic))=0.693/(T1/2× microsome protein concentration (mg/mL)). Liver intrinsic clearance rate (CLint(liver))=CLint(mic)×microsome protein-to-liver weight ratio (mg/g)×liver-to-body weight ratio (g/kg). In the formulas, CLint(mic) is the liver microsome intrinsic clearance rate, CLint(liver) is the liver intrinsic clearance rate, and CL(liver) is the liver clearance rate. For humans, the microsome protein-to-liver weight ratio was 45 mg/g, and the liver-to-body weight ratio was 20.7 g/kg.

Structure (SMILES)	IC50 [1]	half-life at 1 µM [2]	CLint scaled at 1 µM [2]
CCn1c(-c2cc(N3CCN4CC5(CC5)OC[C@@H]4C3)cnc2[C@H](C)OC)c2c3cc(ccc31)-c1csc(n1)C[C@H](NC(=O)[C@H]1[C@H](C)[C@@H]1C)C(=O)N1CCC[C@H](N1)C(=O)OCC1(CC1)C2 (atropisomer, axis not shown; (Ra)) [Compound Z13]	880 pM	36.7 min	43.7 mL/min/kg
CCn1c(-c2cc(C#CCN3CCC(C(F)(F)F)CC3)cnc2[C@H](C)OC)c2c3cc(ccc31)-c1csc(n1)C[C@H](NC(=O)[C@H]1[C@H](C)[C@@H]1C)C(=O)N1CCC[C@H](N1)C(=O)OCC(C)(C)C2 (atropisomer, axis not shown; (Ra)) [Compound Z778]	370 pM	50.3 min	31.9 mL/min/kg
CCO[C@@H](C)c1ncc(N2CCN(CCS(C)(=O)=O)CC2)cc1-c1c2c3cc(ccc3n1CC)-c1csc(n1)C[C@H](NC(=O)[C@H]1[C@H](C)[C@@H]1C)C(=O)N1CCC[C@H](N1)C(=O)OCC1(CC1)C2 (single isomer, unassigned) [Compound Z378-1]	4640 pM	64.2 min	25 mL/min/kg
CCn1c(-c2cc(C#CCN3CCCN(C)CC3)cnc2[C@H](C)OC)c2c3cc(ccc31)-c1csc(n1)C[C@H](NC(=O)[C@H]1[C@H](C)[C@@H]1C)C(=O)N1CCC[C@H](N1)C(=O)OCC(C)(C)C2 (atropisomer, axis not shown; (Ra)) [Compound Z802, (1r,2R,3S)—N-((6^3S,4S,Z)-1^2-(5-(3-(4-methyl-1,4-diaza-1-yl)prop-1-yn-1-yl)-(Ra)-2-((S)-1-methoxyethyl)pyridin-3-yl)-1^1-ethyl-10,10-dimethyl-5,7-dioxo-6^1,6^2,6^3,6^4,6^5,6^6-hexahydro-1^1H-8-oxa-2(4,2)-thiazola-1(5,3)-indola-6(1,3)-pyridazinacycloundecaphane-4-yl)-2,3-dimethylcyclopropane-1-carboxamide]	400 pM	98.7 min	16.2 mL/min/kg
